By Ki is commonly meant a dissociation constant, usually derived from enzyme kinetics or from competition with a known ligand. A high value points to weaker binding.

The structures appear in SMILES notation.

One assay has as its target T1, Neutrophil elastase (Homo sapiens, UniProt P08246).
T1 sequence (P08246 whole entry): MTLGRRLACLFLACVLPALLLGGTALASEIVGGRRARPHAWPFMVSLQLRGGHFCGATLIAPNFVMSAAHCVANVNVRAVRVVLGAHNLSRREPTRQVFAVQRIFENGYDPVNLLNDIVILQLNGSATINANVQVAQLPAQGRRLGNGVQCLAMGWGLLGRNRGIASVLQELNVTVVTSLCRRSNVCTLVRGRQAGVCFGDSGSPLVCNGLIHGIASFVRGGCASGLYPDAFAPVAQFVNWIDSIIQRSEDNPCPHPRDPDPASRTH
Put plainly: In vitro inhibitory activity against human neutrophil elastase (HNE) catalyzed hydrolysis of the synthetic substrate MeO-Suc-Ala- Ala-Pro-Val-pN.
In turn, `CC(C)[C@H](NC(=O)OCc1ccccc1)C(=O)N1CCC[C@H]1C(=O)N[C@H](C(=O)C(F)(F)C(=O)NCc1ccccc1)C(C)C` had a Ki of 0.4 nM.

Regarding `COC(=O)C(=O)[C@@H](NC(=O)[C@@H]1CCCN1C(=O)[C@@H](NC(=O)OCc1ccccc1)C(C)C)C(C)C`, the Ki came to 0.6 nM.

With `CCOc1cccnc1C(=O)[C@@H](NC(=O)[C@@H]1CCCN1C(=O)[C@@H](NC(=O)OCc1ccccc1)C(C)C)C(C)C`, the Ki turned out to be 87000 nM.

`CC(C)[C@H](NC(=O)[C@@H]1CCCN1C(=O)[C@@H](NC(=O)OCc1ccccc1)C(C)C)C(=O)c1nnn(C)n1` gave an inhibitory constant (Ki) of 49 nM.

In the case of `CCCCC(=O)C(=O)[C@@H](NC(=O)[C@@H]1CCCN1C(=O)[C@@H](NC(=O)OCc1ccccc1)C(C)C)C(C)C`, the inhibition constant (Ki) turned out to be 1.6 nM.

`CC(C)[C@H](NC(=O)[C@@H]1CCCN1C(=O)[C@@H](NC(=O)OCc1ccccc1)C(C)C)C(=O)c1nnnn1C`: the Ki came out at 410 nM.

Compound `CC(C)[C@H](NC(=O)[C@@H]1CCCN1C(=O)[C@@H](NC(=O)OCc1ccccc1)C(C)C)C(=O)C1=N[C@@H](C)CO1` displayed a Ki of 1.2 nM.

For `CC(C)[C@H](NC(=O)[C@@H]1CCCN1C(=O)[C@@H](NC(=O)OCc1ccccc1)C(C)C)C(=O)c1ncoc1-c1ccccc1`, the affinity, expressed as Ki, was 330 nM.

Regarding `CC(C)[C@H](NC(=O)[C@@H]1CCCN1C(=O)[C@@H](NC(=O)OCc1ccccc1)C(C)C)C(=O)C(N)=O`, the inhibitory constant (Ki) turned out to be 1.8 nM.

A further assay addresses T1, Neutrophil elastase. Put plainly: In vitro inhibitory activity against human neutrophil elastase (HNE) catalyzed hydrolysis of the synthetic substrate MeO-Suc-Ala- Ala-Pro-Val-pN; 'b' means could not be accurately determined due to low solubility.
As for `CC(C)[C@H](NC(=O)[C@@H]1CCCN1C(=O)[C@@H](NC(=O)OCc1ccccc1)C(C)C)C(=O)c1cc2ccccc2s1`, the Ki result is on record as “Could not be accurately determined due to low solubility”.

The record behind these values is ChEMBL document CHEMBL1128346, “Peptidyl alpha-ketoheterocyclic inhibitors of human neutrophil elastase. 2. Effect of varying the heterocyclic ring on in vitro potency” (J Med Chem, 1995).
